Columns and labels:
CD34+ or pSTAT5+ cells = assay: Personalized chemotherapy screen in PBMC monolayer of patients with myeloproliferative neoplasm / primary myelofibrosis: viability of CD34+ or pSTAT5+ cells; assay type: cell-based, human
Experimental: Method: PBMCs were cultured, fixed and stained as to protocol outlined in the above examples. 384-well plates were imaged using automated confocal microscope in 4-separate channels. We stained CD34-APC, pSTAT5-PE, GFP viability maker, and a DNA binding nuclear stain. Patient material was cultured on drugs for 18 hours before the addition of the viability marker. These images contained both clonal blasts (almost all CD34+ cells that are present in the peripheral blood,) activated cells (pSTAT5+ cells,) as well as inherently healthy cells from the same donor. […] PBMCs from peripheral blood of a patient diagnosed with primary myelofibrosis were purified over a ficol destiny gradient as described above following manufacture directions. The cells were plated as to the protocol in this application in 384-well black plastic imaging plates (corning) containing 350 FDA approved drugs in DMSO at 10 uM. The cells were plated at 20.000 cell/well in 50 ul of RPMI supplemented with 5% FCS 0.1% Pen/strep. The cells were incubated overnight and a viability dye was added (fixable live/dead green, Invitrogen following manufacture directions). The cells were fixed and permeablized in PBS containing 2% formaldehyde with 0.1% Tween-x114 for 10 minute at room temperature. The solution was then replaced with PBS containing antibody against CD34 and pSTAT5 (BD biosciences) for 1 hour. The solution was then replaced with PBS containing DAPI at manufacture recommended concentration. The plates were imaged at 10× on an Operetta (PE) automated confocal microscope in four channels using band-pass filter light separation (DAPI, GFP, PE, APC). Using an image analysis pipeline, the sensitivity of the cancer cells (CD34 and pSTAT5 positive) to each drug was compared to the sensitivity on the healthy cells (NOT CD34 and pSTAT5 positive). All results were normalized to the control, DMSO alone.

[1] = tested on: primary myelofibrosis (PMF)-patients; assay: Clinical treatment of primary myelofibrosis patients already on Ruxolitinib with added Azacitidine; assay type: in vivo, human
Experimental: PBMCs from peripheral blood of a patient diagnosed with primary myelofibrosis were purified over a ficol destiny gradient as described above following manufacture directions. The cells were plated as to the protocol in this application in 384-well black plastic imaging plates (corning) containing 350 FDA approved drugs in DMSO at 10 uM. The cells were plated at 20.000 cell/well in 50 ul of RPMI supplemented with 5% FCS 0.1% Pen/strep. The cells were incubated overnight and a viability dye was added (fixable live/dead green, Invitrogen following manufacture directions). The cells were fixed and permeablized in PBS containing 2% formaldehyde with 0.1% Tween-x114 for 10 minute at room temperature. The solution was then replaced with PBS containing antibody against CD34 and pSTAT5 (BD biosciences) for 1 hour. The solution was then replaced with PBS containing DAPI at manufacture recommended concentration. The plates were imaged at 10× on an Operetta (PE) automated confocal microscope in four channels using band-pass filter light separation (DAPI, GFP, PE, APC). Using an image analysis pipeline, the sensitivity of the cancer cells (CD34 and pSTAT5 positive) to each drug was compared to the sensitivity on the healthy cells (NOT CD34 and pSTAT5 positive). All results were normalized to the control, DMSO alone. […]

With `Nc1ncn([C@@H]2O[C@H](CO)[C@@H](O)[C@H]2O)c(=O)n1` [Azacitidine] the “viability of cells stained for CD34 or pSTAT5” value (CD34+ or pSTAT5+ cells; MPN patient PBMCs, approximately 350 compounds, 18 hours on drugs, FIG. 6) was “decreased the viability of cells expressing the biomarkers”, the “titration: viability of CD34+ cells compared to healthy cells and to DMSO” value (CD34+ or pSTAT5+ cells; same patient, FIG. 7) was “concentration dependent effects were seen” and the “rank among compounds reducing percentage of viable cells expressing CD34 or pSTAT5” value (CD34+ or pSTAT5+ cells; two patients with early PMF or PMF, both treated with Ruxolitinib at the time of Pharmacoscopy, FIG. 10) was “Top drug or highly enriched drug”. For the same compound, the “number of diseased cells in patient” value ([1]; patient undergoing treatment using Ruxolitinib, Azacitidine additionally used, FIG. 12D) was “significantly reduced the number of diseased cells” and the “clinical response of patients” value ([1]; two PMF patients already on Ruxolitinib (Jakavi) treated with Azacitidine) was “responding well”.

— patent US12578331B2, “Monolayer of PBMCs or bone-marrow cells and uses thereof” (Mobius Biotechnology GmbH, priority 2014, dated 2026)
